These results are taken from article PMC5897741, “Thermokinetic profile of NDM-1 and its inhibition by small carboxylic acids” (Bioscience Reports, 2018).

Assay [1] relates to clinical E. coli strain expressing NDM-1 gene (E. coli–NDM-1). The conditions noted are these: 400 μM compound, imipenem titrated into E. coli–NDM-1 suspension; efficacy order 7 > 1 > 8.
For assay [2], the system named is clinical E. coli–NDM-1 strain. Kind of assay: MIC determination, broth microdilution (CLSI). Format: cell-based, Escherichia coli. The conditions noted are these: for synergistic effect with imipenem: 200 and 400 μM inhibitor. The procedure:
Single colonies of E. coli–NDM-1 were used to inoculate Mueller–Hinton medium and were grown at 37°C overnight. […] Results were obtained after incubating the microtitre plate at 37°C for a further 18 h and turbidity of bacterial growth was recorded using a plate reader.

For assay [3], the target named is T1, NDM-1 (Klebsiella pneumoniae, UniProt C7C422). The assay is described as follows: biochemical. The procedure:
Rates were also determined in the presence of inhibitor by pre-incubation with the enzyme for 30 min at RT before starting kinetic experiments. IC50 values were determined using GraphPad Prism5 software (GraphPadSoftware, La Jolla, CA, USA) by plotting percentage of inhibition against inhibitor concentration; average values from three measurements are reported.

Assay [4] relates to ImiS. The conditions noted are these: cited from earlier work.
Assay [5] concerns the target T1, NDM-1. The assay is described as follows: ITC multi-injection inhibition assay. Format: biochemical. Also on record: made in house; host or cells: E. coli. The conditions noted are these: for Kiu (uncompetitive inhibition constant): ITC inhibition assay, penicillin G, 25°C, 50 mM Tris–HCl, pH 7.0, 100 mM NaCl; for mode of inhibition: pH 7.0. The source says:
Competitive (Kic) and uncompetitive (Kiu) inhibition constant values for each inhibitor were obtained by fitting calculated reaction rates (υ) at different inhibitor concentrations to (eqn 5) using nonlinear regression analysis in Origin software (embedded with ITC), with Kic and Kiu set as shared parameters between all datasets, inhibitor concentration [I], [E]tot, [S] as independent variables and υ as dependent variable.

For assay [6], the system named is CcrA. The conditions noted are these: cited from earlier work.
For assay [7], the system named is L1. The conditions noted are these: cited from earlier work.
Assay [8] has as its target T1, NDM-1. Kind of assay: ITC single injection assay, enthalpy of β-lactam hydrolysis. Details: made in house; host or cells: E. coli. The conditions noted are these: for ΔHapp: NDM-1 catalysed hydrolysis, Tris–HCl pH 7.0, 25°C; for ΔHint: Y-axis intercept of ΔHapp vs ΔHion; for ΔHint / n (number of exchanging protons): pH 7.0; for n (number of exchanging protons): slope of ΔHapp vs ΔHion. The class given is biochemical. The procedure:
Real-time changes of heat-flow were recorded continuously until return to baseline. Control experiments were performed by titrating substrate to buffer and using those data in corrections for heat of dilution before values of ΔHapp were determined using the embedded Origin software, by dividing integrated heat by the molar quantity of substrate converted according to (eqn 1), where dQ/dt is the rate of heat production, V is the volume of the sample cell and [S]t = 0 is the substrate concentration: (1) ΔH=ft=0∞dQ/dtdt/(V[S](t=0))
Experiments were also repeated in HEPES and phosphate buffers and the intrinsic enthalpy change (ΔHint) of the reactions calculated according to (eqn 2) by plotting the measured ΔHapp as a function of ΔHion, where ΔHion is the ionisation enthalpy of the buffer used and n represents the number of exchanging protons. The values of ΔHion used in the calculation were ΔHion (Tris–HCl) = 11.34 kcal/mol, ΔHion (HEPES) = 4.88 kcal/mol and ΔHion (phosphate) = 0.86 kcal/mol. (2) ΔHapp=ΔHint+n ΔHion

In assay [9] the target is T1, NDM-1. The conditions noted are these: ITC, pH 7.0, 25°C. The source says:
Successive injections of antibiotic into the sample cell were made at 120 s intervals. Following (eqn 3), the change in thermal power (dQ/dt) from each titration was converted into the reaction rate (υ). These rates were used to fit to the Michaelis–Menten equation (eqn 4) to obtain the kinetic parameters KM (Michaelis–Menten constant) and kcat (turnover rates), where [E]tot is the total concentration of active enzyme. (3) υ=dP/dt=1/VΔHapp⋅dQ/dt (4) υ=kcat[E]tot[S]/KM+[S]

Assay [10] addresses T1, NDM-1. Details: made in house; host or cells: E. coli; method as in doi:10.1016/j.ejbas.2015.07.006. The conditions noted are these: cited from earlier work.
In assay [11] the test system is CphA. The conditions noted are these: cited from earlier work.
Assay [12] has as its system IMP-1. The conditions noted are these: cited from earlier work.

T1 sequence (C7C422 29-270 limits assumed): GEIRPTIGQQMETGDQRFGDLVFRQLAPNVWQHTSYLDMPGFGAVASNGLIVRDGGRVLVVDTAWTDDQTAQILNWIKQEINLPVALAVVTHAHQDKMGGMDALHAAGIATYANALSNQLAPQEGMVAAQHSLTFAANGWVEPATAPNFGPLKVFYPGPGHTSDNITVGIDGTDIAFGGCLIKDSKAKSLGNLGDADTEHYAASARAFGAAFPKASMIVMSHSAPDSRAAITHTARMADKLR

As for `O=C(O)[C@H]1CS[C@@H](C(=O)O)N1` (racemic) [Compound 8, rac-thiazolidine-2,4-dicarboxylic acid], the “inhibition of imipenem turnover in live bacteria” value in assay [1] is “capable of inhibiting the turnover rate of imipenem”. The “MIC of imipenem in combination with inhibitor” value was 16 µg/mL in [2] (200 μM inhibitor) and 8 µg/mL in [2] (400 μM inhibitor). Moreover, the “reduction of MIC of imipenem” value in assay [2] (400 μM inhibitor) is listed as 2 fold. Also, the “synergistic effect with imipenem” value in [2] is recorded as “weaker synergy”. The same molecule returned an IC50 in [3] of 3.45 ± 0.26 µM. Moreover, the “effect on activity” value in assay [4], in assay [6] and in assay [7] was “powerful effect” throughout. Further, the Ki in assay [4] (class B2 ImiS) is 7.1 µM; in assay [5], 152 ± 6 µM; in [6] (class B1 CcrA), 0.64 µM; in [7] (class B3 L1) it was 1.8 µM. In addition, in assay [5], the “Kiu (uncompetitive inhibition constant)” value was 5 ± 0.46 µM. Moreover, the mode of inhibition entry in assay [5] is reported as “predominantly uncompetitive”.

In the case of `Cc1nnc(SCC2=C(C(=O)O)N3C(=O)[C@@H](NC(=O)Cn4cnnn4)[C@H]3SC2)s1` [Cefazolin, cefazolin], in [8], the ΔHapp is -28.3 ± 0.97 kcal/mol, the ΔHint is -5.20 ± 0.04 kcal/mol and the “n (number of exchanging protons)” value is −1.89 ± 0.04. Besides, the ΔHapp result in assay [8] (listed as cefazolin) is “–28.3 kcal/mol”. Moreover, in assay [9], the Km is 237 ± 14 µM and the kcat was found to be 42 ± 1 s⁻¹.

Turning to `C[C@H](CS)C(=O)N1CCC[C@@H]1C(=O)O` [Compound 1, D-Captopril, reference compound], in [5], the “Kiu (uncompetitive inhibition constant)” value came to 178 ± 21 µM.

With `Cc1cc(/N=N/c2ccc(O)c(C(=O)O)c2)ccc1O` [Compound 2], the “predicted inhibition in docking” value in assay [10] is given as “predicted to inhibit NDM-1”.

Consider `O=C(O)[C@@H](O)[C@H](O)C(=O)O` [Compound 5, D-(−)-tartaric acid], for which the half-maximal inhibitory concentration (IC50) in assay [3] is 409 ± 16 µM. In assay [5], the affinity corresponds to a Ki of 365 ± 72 µM, the “Kiu (uncompetitive inhibition constant)” value was 993 ± 107 µM and the mode of inhibition result was “mainly competitive”.

For `O=C(O)/C=C/C(=O)O` [Compound 6, fumaric acid], the concentration for half-maximal inhibition (IC50) in assay [3] was 232 ± 5 µM. In addition, in [5], the Ki worked out at 198 ± 50 µM, the “Kiu (uncompetitive inhibition constant)” value came out at 638 ± 94 µM and the mode of inhibition entry is “mainly competitive”.

With `O=C(O)c1cccc(C(=O)O)n1` [Compound 7, pyridine-2,6-dicarboxylic acid], the “inhibition of imipenem turnover in live bacteria” value in assay [1] was “capable of inhibiting the turnover rate of imipenem”. The “inhibition” value in assay [11] and in assay [12] was “effective inhibitor” throughout. Also, the “MIC of imipenem in combination with inhibitor” value worked out at 4 µg/mL in assay [2] (200 μM inhibitor) and 1 µg/mL in assay [2] (400 μM inhibitor). In addition, the “synergistic effect with imipenem” value in assay [2] is on record as “restore the susceptibility”. Also, in assay [3], the IC50 was determined as 1.13 ± 0.04 µM. This molecule also gave a Ki in assay [5] of 2.17 ± 0.48 µM. In addition, the “Kiu (uncompetitive inhibition constant)” value in assay [5] came out at 2.07 ± 0.06 µM. For the same molecule, in [5], the mode of inhibition result is recorded as “mixed inhibitor”.

Take `C[C@@H](O)[C@H]1C(=O)N2C(C(=O)O)=C(SCCN=CN)C[C@H]12` [Imipenem, imipenem]: the MIC in [2] (Escherichia coli, 0 μM inhibitor, read-out: MIC of imipenem) was determined as 16 µg/mL. Besides, in assay [8], the ΔHapp is -32.5 ± 0.08 kcal/mol, the ΔHint was -18.4 ± 0.12 kcal/mol and the “n (number of exchanging protons)” value is −1.24 ± 0.02. In assay [8] (listed as imipenem), the ΔHapp entry is recorded as “–32.5 kcal/mol” and the “n (number of exchanging protons)” value is on record as −1.24 (± 0.02). Besides, in assay [9], the Km came out at 168 ± 28 µM and the catalytic constant (kcat) stood at 23 ± 1 s⁻¹.

In the case of `CC1(C)S[C@@H]2[C@H](NC(=O)Cc3ccccc3)C(=O)N2[C@H]1C(=O)O` [Penicillin G, penicillin G], in assay [8], the ΔHapp is -27.9 ± 0.01 kcal/mol, the ΔHint is -18.3 ± 0.73 kcal/mol and the “n (number of exchanging protons)” value is listed as −0.87 ± 0.10. For the same molecule, in assay [8] (listed as penicillin G), the ΔHapp result is reported as “–27.9 kcal/mol” and the “n (number of exchanging protons)” value is given as −0.87 (± 0.10). Moreover, in assay [9], the Michaelis constant (Km) was determined as 139 ± 12 µM and the turnover number (kcat) is 54 ± 1 s⁻¹.
